Assays:
[1] = system: farnesyl-modification of Ras protein in NIH3T3 cells transformed by activated ras gene; assay: Inhibitory activities against farnesyl-modification of Ras protein in NIH3T3 cells transformed by activated ras gene; assay type: cell-based; conditions: Mus musculus, 24 hours, read-out: 50% inhibitory concentrations (IC50) against farnesyl-modification of Ras protein
Procedure: PHARMACOLOGICAL TEST EXAMPLE 2 (Inhibitory activities against farnesyl-modification of Ras protein)
Using the compounds of the present invention, inhibitory activities against farnesyl-modification of Ras protein in NIH3T3 cells transformed by activated ras gene, were measured.
The NIH3T3 cells transformed by activated ras gene, were seeded on a culture plate and cultured for 3 days. Then, a compound of the present invention in a predetermined concentration was added to the culture. In accordance with the method disclosed in J. Biol. Chem., vol. 268, p. 18415 (1993), the cells were cultured for 24 hours and then taken off from the plate, and the cells were dissolved. After centrifugal separation for 5 minutes under 12000 g, the supernatant was used as a cell extract. The cell extract was subjected to SDS polyacrylamide gel electrophoresis to separate farnesyl-modified Ras protein and non-farnesyl-modified Ras protein. The protein on the gel was transferred onto a nitrocellulose membrane, and an anti-Ras protein antibody was reacted as a probe (primary antibody reaction). An anti-primary antibody, a peroxidase inclusion (secondary antibody), was reacted, and then Ras protein was detected by a chemical fluorescence enhancing kit. The proportion of non-farnesyl-modified Ras protein was quantified by a densitometer and taken as the inhibitory activity. […]

[2] = biological target: T1, protein-farnesyl transferase (PFT) (Rattus norvegicus, UniProt Q02293+Q04631); assay: Inhibitory activities against protein-farnesyl transferase (PFT); assay type: biochemical; conditions: PFT derived from rat brain; prenyl acceptor H-ras protein or biotin-added Lys-Thr-Ser-Cys-Val-Ile-Met; 37° C., 20 minutes; read-out: 50% inhibitory concentrations (IC50) against PFT activities
T1 construct: PFT derived from rat brain (Q-sepharose fraction); from tissue; host or cells: rat brain (soluble fraction, 30-50% ammonium sulfate cut, Q-Sepharose fraction)
Procedure: Pharmacological Test 1 (Inhibitory activities against protein-farnesyl transferase)
PFT was separated in such a manner that a soluble fraction of rat s brain was fractionated by means of 30%-50% saturated ammonium sulfate, further dialyzed and then subjected to column chromatography by Q-sepharose™ (manufactured by Pharmacia) (Reiss et al., Cell, vol. 62, pp. 81-88 (1990)).
(2) Method for measuring PFT activities
Measurement of PFT activities was conducted by using, as a prenyl acceptor, H-ras protein or a peptide corresponding to the C-terminal 7 amino acid residues of K-rasB protein which had biotin added to the N-terminal (biotin-added Lys-Thr-Ser-Cys-Val-Ile-Met) and, as a prenyl donor, [^3 H]-labeled farnesyl pyrophosphate (FPP) (Reiss et al., Methods: A Companion to Methods in Enzymology, vol. 1, No. 3, pp. 241-245 (1990)). […]
The enzymatic reaction product containing H-ras protein as the prenyl acceptor, was analyzed by SDS-PAGE (sodium dodecyl sulfate/polyacrylamide gel electrophoresis). […]
The measurement of PFT activities using H-ras protein as the prenyl receptor, was also analyzed by a rapid separate method. […]

SMILES | IC50 [1] [nM] | IC50 [2] [nM]
CCOC(=O)C(CC(=O)O)=C(O)C(=O)N(CC#Cc1ccccc1)[C@H](C)[C@H](Cc1ccc(C(=O)Nc2ccccc2)o1)c1ccc2c(c1)OCO2 (relative stereo) [Example 17, 3-(ethoxycarbonyl)-4-hydroxy-4-[N [(1RS,2RS)-1-methyl-2-(3,4-methylenedioxyphenyl)-3-{5-(phenylcarbamoyl)-2-furyl}propyl]-N-(3-phenyl-2-propynyl)carbamoyl]-3-butenoic acid] | 4.3 | 1.7
C[C@H]([C@H](Cc1ccc(C(=O)Nc2ccccc2)o1)c1ccc2c(c1)OCO2)N(C/C=C/c1ccccc1)C(=O)C(O)=C(CC(=O)O)C(=O)OC(C)(C)C [Example 1, 3-(tert-butoxycarbonyl)-4-hydroxy-4-[N-[(1R,2R)-1-methyl-2-(3,4-methylenedioxyphenyl)-3-{5-(phenylcarbamoyl)-2-furyl}propyl]-N-{(E)-3-phenyl-2-propenyl}carbamoyl]-3-butenoic acid] | 1.3 | 0.74

Source: patent US5981573A, “N,N-disubstituted amic acid derivatives” (Banyu Pharmaceutical Co., Ltd., priority 1996, dated 1999)
